We go through 3 molecules from patent publication US20100063085A1, “METHOD OF TREATING LEARNING IMPAIRMENT IN DOWN'S SYNDROME SUBJECTS” (University Court of The University of Dundee, priority 2008, published 2010).

Test in all cases: biochemical
For one experiment, the target named is NEK7 (Homo sapiens, UniProt Q8TDX7). The note with it: read-out: NEK7 activity as percentage of control without inhibitor. The procedure:
(§1) All assays (25.5 μl) were carried out at room temperature (21° C.) and were linear with respect to time and enzyme concentrations under the conditions used. Assays were performed for 30 minutes except assays for LCK and PKB which were performed for 15 minutes using Multidrop Micro reagent dispensers (Thermo Electron Corporation, Waltham, Mass. 02454, USA) in a 96-well format. The concentration of […] [γ-^33P] ATP (800 cpm/pmol) in the assays was one of three concentrations (5, 20 or 50 μM) in order to be at or below Km for ATP for the enzyme. Assays were initiated with MgATP and stopped by addition of 5 μl of 0.5M orthophosphoric acid. Assays were then harvested onto P81 filterplates using a unifilter harvester (PerkinElmer, Boston, Mass. 02118, USA), with a wash buffer of 50 mM orthophosphoric acid. Filterplates were then air dried overnight. 10 μl of Microscint O was added per well prior to counting for radioactivity.
(§2) The following kinases were assayed against the substrates indicated. Aurora B was assayed against the substrate peptide […] (300 μM), ERK8 and MST-2 were both assayed against MBP (0.33 mg/ml). IKKβ was assayed against the substrate peptide […] (300 μM), JNK3 was assayed against 3 μM ATF2[19-96]. MAPKAP-K3 and PKD1 were both assayed against […] (30 μM), MARK3 was assayed against CHKtide ([…]) substrate peptide (300 μM). MNK1 and MNK2 were both assayed against eIF4E protein (0.5 mg/ml). NEK7 was assayed against […] (300 μM), PIM2 was assayed against […] (300 μM), ΔPH PKBβ-S474D was assayed against Crosstide (30 μM), PLK1 was assayed against […] (300 μM). PRK2 was assayed against Long S6 peptide, […] (30 μM), RSK2 was assayed against […] (30 μM), SRC was assayed against cdc2 peptide, […], (300 μM) and SRPK1 was assayed against peptide […] (300 μM). All enzymes were diluted in 50 mM Tris/HCl pH 7.5, 0.1 mM EGTA, 1 mg/ml BSA, 0.1% β-mercaptoethanol buffer and assayed in an incubation containing 50 mM Tris/HCl pH7.5, 0.1 mM EGTA, 0.1% β-mercaptoethanol, CAMK-1 (5-20 mU) diluted in 50 mM Tris/HCl pH 7.5, 0.1 mM EGTA, 1 mg/ml BSA, 0.1% β-mercaptoethanol is assayed against substrate peptide […] in an incubation containing 50 mM Tris/HCl pH 7.5, 0.1 mM EGTA, 0.5 mM CaCl2, 0.3 μM calmodulin, 0.1% β-mereaptoethanol, 300 μM substrate peptide, 10 mM magnesium acetate and 0.05 mM [^33P-γ-ATP] (500-1000 cpm/pmole). EF2K (5-20 mU) diluted in 50 mM Hepes pH 6.6, 0.1% β-mercaptoethanol, 1 mg/ml BSA is assayed against a substrate peptide […] in an incubation containing 50 mM Hepes pH 6.6, 0.2 mM CaCl2, 0.3 μM Calmodulin, 0.05% b-mercaptoethanol, 300 μM substrate peptide, 10 mM magnesium acetate and 0.05 mM [^33P-γ-ATP] (500-1000 cpm/pmole).

For the next experiment, the target named is MNK2 (Homo sapiens, UniProt Q9HBH9). The note with it: read-out: MNK2 activity as percentage of control without inhibitor. On the procedure: as §1, §2
Another experiment has as its target CAMK-1 (Homo sapiens, UniProt Q14012). The note with it: read-out: CAMK-1 activity as percentage of control without inhibitor. The procedure: as §1, §2
Another experiment has as its target Aurora B (Homo sapiens, UniProt Q96GD4). The note with it: read-out: Aurora B activity as percentage of control without inhibitor. The procedure: as §1, §2
Another experiment concerns the target MNK1 (Homo sapiens, UniProt Q9BUB5). The note with it: read-out: MNK1 activity as percentage of control without inhibitor. On the procedure: as §1, §2
A further experiment deals with MAPKAP-K3 (Homo sapiens, UniProt Q16644). The note with it: read-out: MAPKAP-K3 activity as percentage of control without inhibitor. On the procedure: as §1, §2
The target of a further experiment is T1, IKKb (Homo sapiens, UniProt O14920).
T1 sequence (O14920 1-756): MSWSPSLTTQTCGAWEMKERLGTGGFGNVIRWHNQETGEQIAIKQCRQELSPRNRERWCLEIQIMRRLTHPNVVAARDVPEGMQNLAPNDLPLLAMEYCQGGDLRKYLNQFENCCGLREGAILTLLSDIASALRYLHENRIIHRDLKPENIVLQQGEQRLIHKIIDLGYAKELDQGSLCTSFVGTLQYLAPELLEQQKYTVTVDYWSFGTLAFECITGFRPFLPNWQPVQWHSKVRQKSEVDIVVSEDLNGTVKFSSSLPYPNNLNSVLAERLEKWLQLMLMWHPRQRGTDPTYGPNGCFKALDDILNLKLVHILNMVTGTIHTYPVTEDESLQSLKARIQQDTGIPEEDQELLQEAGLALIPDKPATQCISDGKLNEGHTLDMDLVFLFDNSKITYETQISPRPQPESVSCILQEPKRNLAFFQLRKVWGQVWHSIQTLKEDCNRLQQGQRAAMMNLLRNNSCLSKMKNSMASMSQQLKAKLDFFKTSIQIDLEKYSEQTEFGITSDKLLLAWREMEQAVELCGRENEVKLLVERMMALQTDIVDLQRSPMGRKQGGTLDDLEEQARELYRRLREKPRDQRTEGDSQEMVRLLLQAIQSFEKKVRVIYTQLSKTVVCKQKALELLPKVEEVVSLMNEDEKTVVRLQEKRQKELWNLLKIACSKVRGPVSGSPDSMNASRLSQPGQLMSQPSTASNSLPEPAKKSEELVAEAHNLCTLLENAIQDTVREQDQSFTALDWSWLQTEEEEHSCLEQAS
The note with it: read-out: IKKb activity as percentage of control without inhibitor. On the procedure:
as §1, §2

Like-named read-outs stand apart in the source and are kept apart here.

MNK1, sequence (Q9BUB5 whole entry, species assumed): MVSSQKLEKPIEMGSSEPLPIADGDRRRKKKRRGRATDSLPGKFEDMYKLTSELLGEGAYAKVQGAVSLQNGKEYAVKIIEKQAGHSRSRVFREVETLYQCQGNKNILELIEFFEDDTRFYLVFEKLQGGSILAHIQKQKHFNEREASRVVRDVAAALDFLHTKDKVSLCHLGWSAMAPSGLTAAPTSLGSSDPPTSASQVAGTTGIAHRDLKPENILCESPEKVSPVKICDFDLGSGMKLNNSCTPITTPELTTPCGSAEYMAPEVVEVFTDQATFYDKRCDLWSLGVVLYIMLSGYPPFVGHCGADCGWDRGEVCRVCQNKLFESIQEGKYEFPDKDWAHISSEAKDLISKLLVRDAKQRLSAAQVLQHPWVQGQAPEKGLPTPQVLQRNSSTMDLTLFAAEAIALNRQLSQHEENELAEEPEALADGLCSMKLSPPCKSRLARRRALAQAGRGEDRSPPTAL
NEK7, sequence (Q8TDX7 whole entry, species assumed): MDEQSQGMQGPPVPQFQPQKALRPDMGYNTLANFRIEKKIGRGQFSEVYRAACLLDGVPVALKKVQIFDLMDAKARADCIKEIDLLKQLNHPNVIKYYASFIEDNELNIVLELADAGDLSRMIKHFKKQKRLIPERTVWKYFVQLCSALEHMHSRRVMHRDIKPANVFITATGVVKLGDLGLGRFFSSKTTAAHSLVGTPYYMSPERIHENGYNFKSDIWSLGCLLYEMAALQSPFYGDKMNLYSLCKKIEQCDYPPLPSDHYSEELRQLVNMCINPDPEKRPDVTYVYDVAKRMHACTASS
MNK2, sequence (Q9HBH9 whole entry, species assumed): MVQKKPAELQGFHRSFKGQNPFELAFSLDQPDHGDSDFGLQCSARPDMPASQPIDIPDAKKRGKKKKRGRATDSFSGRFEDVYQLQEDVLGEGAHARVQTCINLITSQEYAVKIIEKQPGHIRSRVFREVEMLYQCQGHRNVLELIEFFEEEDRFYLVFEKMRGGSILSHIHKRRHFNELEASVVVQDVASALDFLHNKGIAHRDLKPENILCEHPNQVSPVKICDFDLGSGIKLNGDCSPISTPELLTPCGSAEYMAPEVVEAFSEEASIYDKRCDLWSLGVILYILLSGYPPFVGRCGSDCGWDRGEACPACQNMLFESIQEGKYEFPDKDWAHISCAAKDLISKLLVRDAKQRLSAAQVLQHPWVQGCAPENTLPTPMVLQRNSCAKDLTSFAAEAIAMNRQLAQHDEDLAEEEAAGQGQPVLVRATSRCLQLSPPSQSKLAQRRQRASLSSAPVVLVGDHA
Aurora B, sequence (Q96GD4 whole entry): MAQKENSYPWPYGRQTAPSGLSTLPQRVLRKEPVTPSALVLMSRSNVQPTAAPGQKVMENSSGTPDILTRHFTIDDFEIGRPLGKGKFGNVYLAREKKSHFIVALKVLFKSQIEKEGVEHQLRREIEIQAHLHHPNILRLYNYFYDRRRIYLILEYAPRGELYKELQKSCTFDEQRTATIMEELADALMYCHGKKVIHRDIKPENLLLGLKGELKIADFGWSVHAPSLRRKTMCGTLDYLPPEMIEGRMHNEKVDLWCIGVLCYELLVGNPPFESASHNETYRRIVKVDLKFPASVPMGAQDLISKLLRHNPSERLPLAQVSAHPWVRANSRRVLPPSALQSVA
MAPKAP-K3, sequence (Q16644 whole entry, species assumed): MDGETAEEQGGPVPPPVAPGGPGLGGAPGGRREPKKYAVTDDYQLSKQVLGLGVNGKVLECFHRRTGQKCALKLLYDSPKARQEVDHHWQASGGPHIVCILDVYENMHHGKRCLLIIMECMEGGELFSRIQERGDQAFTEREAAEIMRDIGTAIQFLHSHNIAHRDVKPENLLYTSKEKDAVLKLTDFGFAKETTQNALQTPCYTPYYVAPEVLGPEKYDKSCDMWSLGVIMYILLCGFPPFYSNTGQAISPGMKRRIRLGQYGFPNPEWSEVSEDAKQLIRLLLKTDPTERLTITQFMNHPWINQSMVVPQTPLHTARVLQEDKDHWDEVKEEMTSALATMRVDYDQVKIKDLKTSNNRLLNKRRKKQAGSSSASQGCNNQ

Consider `COc1ccc2c3c([nH]c2c1)C(C)=NCC3` [Harmaline], for which the remaining activity at 1 µM at NEK7 (inhibitor 1 μM) came to 95%; on MNK2 (inhibitor 1 μM), 88%; on CAMK-1 (inhibitor 1 μM), 99%; at Aurora B (inhibitor 1 μM), 98%; on MNK1 (inhibitor 1 μM), 89%; on MAPKAP-K3 (inhibitor 1 μM) it was 79%. Further, the remaining activity at 1 µM on IKKb (inhibitor 1 μM) was determined as 78%. The remaining activity at 10 µM on NEK7 (inhibitor 10 μM) was found to be 115%; at MNK2 (inhibitor 10 μM), 77%; at CAMK-1 (inhibitor 10 μM), 110%; on Aurora B (inhibitor 10 μM) it was 112%; on MNK1 (inhibitor 10 μM) it was 82%; at MAPKAP-K3 (inhibitor 10 μM), 82%. The remaining activity at 10 µM on IKKb (inhibitor 10 μM) amounted to 82%.

For `CC1=NCCc2c1[nH]c1cc(O)ccc21` [Harmalol], the remaining activity at 1 µM at NEK7 (inhibitor 1 μM) was determined as 83%; at MNK2 (inhibitor 1 μM) it was 97%; at CAMK-1 (inhibitor 1 μM), 93%; on Aurora B (inhibitor 1 μM), 110%; at MNK1 (inhibitor 1 μM), 80%; on MAPKAP-K3 (inhibitor 1 μM) it was 95%. For the same molecule, at IKKb (inhibitor 1 μM), the remaining activity at 1 µM was 93%. Further, the remaining activity at 10 µM came to 56% on NEK7 (inhibitor 10 μM); 71% at MNK2 (inhibitor 10 μM); 60% on CAMK-1 (inhibitor 10 μM); 83% at Aurora B (inhibitor 10 μM); 48% on MNK1 (inhibitor 10 μM); 88% on MAPKAP-K3 (inhibitor 10 μM). Also, the remaining activity at 10 µM at IKKb (inhibitor 10 μM) stood at 69%.

Consider `COc1ccc2c(c1)[nH]c1c(C)nccc12` [Harmine], for which the remaining activity at 1 µM turned out to be 90% at NEK7; 84% at MNK2; 107% at CAMK-1; 100% on Aurora B; 84% on MNK1; 89% at MAPKAP-K3. For the same molecule, the remaining activity at 1 µM at IKKb is 97%. The remaining activity at 10 µM came out at 92% at NEK7; 98% at MNK2; 94% at CAMK-1; 102% at Aurora B; 52% at MNK1; 93% on MAPKAP-K3. Also, on IKKb, the remaining activity at 10 µM is 73%.
